Assay results: US20030045548A1, “Polymorphic forms of 6-[4-(1-cyclohexyl-1H-tetrazol-5-YL)butoxy]-3,4-dihydro-2(1H)-quinolinone” (priority 2001, published 2003)

Columns and labels:
[1] = bioavailability of cilostazol Form A; assay type: in vivo; conditions: Form A as prepared by the procedures of the '479 patent
[2] = aqueous solubility of cilostazol polymorphic forms; assay type: physicochemical
[3] = stability of the polymorphic form; assay type: physicochemical; conditions: statement in summary, no conditions given

O=C1CCc2cc(OCCCCc3nnnn3C3CCCCC3)ccc2N1 [Form A, 6-[4-(1-cyclohexyl-1H-tetrazol-5-yl)butoxy]-3,4-dihydro-2(1H)-quinolinone]
bioavailability [1]: low bioavailability | aqueous solubility ([2]; Form A as prepared by the procedures of the '479 patent): low aqueous solubility

O=C1CCc2cc(OCCCCc3nnnn3C3CCCCC3)ccc2N1 [Form B, 6-[4-(1-cyclohexyl-1H-tetrazol-5-yl)butoxy]-3,4-dihydro-2(1H)-quinolinone]
solubility relative to Form A ([2]; inferred from lower DSC melting point (FIG. 8), no solubility measurement): more soluble than Form A | stability of the form [3]: stable
